Experimental data as given in ChEMBL document CHEMBL1201862, “PubChem BioAssay data set” (2004).
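Cells were grown in 96-well plates and exposed to each compound for 48 hours at five concentrations; endpoints were interpolated linearly between bracketing concentrations, or set to the highest concentration if not reached. Here, GI50 denotes the concentration required for 50% inhibition of growth.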 Active and inactive are the calls of the source. No stated cut-off is given here; in the data, active = GI50 up to about 1.1 µM and inactive = higher.

Legend:
Test in all cases: DTP human tumour cell line panel, 48 h
[1] = system: PC-3
[2] = system: RPMI-8226
[3] = system: MCF7
[4] = system: SF-268
[5] = system: Hs-578T
[6] = system: M14
[7] = system: TK-10
[8] = system: SR
[9] = system: HL-60
[10] = system: U-251
[11] = system: OVCAR-8
[12] = system: A498
[13] = system: MDA-MB-435
[14] = system: ACHN
[15] = system: UACC-62
[16] = system: HCC 2998
[17] = system: UACC-257
[18] = system: SK-MEL-2
[19] = system: RXF 393
[20] = system: HOP-92

Measured: GI50

COC1C(OC(=O)c2ccc(C)[nH]2)C(O)C(Oc2ccc3c(O)c(NC(=O)c4ccc(O)c(CC=C(C)C)c4)c(=O)oc3c2Cl)OC1(C)C (stereo not drawn)
inactive: [1] 12.9 µM | [2] 8.22 µM | [3] 18.4 µM | [4] 17.3 µM | [5] 16.1 µM | [6] 16 µM | [7] 55.3 µM | [8] 22.5 µM | [9] 26.3 µM | [10] 12.8 µM | [11] 17.9 µM | [12] 17.9 µM | [13] 30.2 µM | [14] 38.3 µM | [15] 15.7 µM | [16] 18.1 µM | [17] 54 µM | [18] 13.2 µM

CCOC(=O)c1ccc(Nc2nc3ccc(C(F)(F)F)cc3nc2-c2ccccc2)cc1
inactive: [1] 38 µM | [2] > 100 µM | [3] > 100 µM | [4] > 100 µM | [19] 97.3 µM | [5] 60.5 µM | [6] > 100 µM | [7] > 100 µM | [8] > 100 µM | [9] 61.1 µM | [10] 53 µM | [11] > 100 µM | [13] > 100 µM | [14] > 100 µM | [15] 28.2 µM | [16] 84.1 µM | [17] > 100 µM

CC1=C/C(=N\O)C(C(O)(C(F)(F)F)C(F)(F)F)C(C)(C)C1 (stereo not drawn)
inactive: [1] > 10 µM | [3] > 10 µM | [4] > 10 µM | [5] > 10 µM | [6] > 10 µM | [7] > 10 µM | [8] > 10 µM | [10] > 10 µM | [11] > 10 µM | [12] > 10 µM | [20] > 10 µM | [13] > 10 µM | [14] > 10 µM | [15] > 10 µM | [16] > 10 µM | [17] > 10 µM

Cc1ccc(NC(=O)c2cc(S(=O)(=O)N3CCNNC3=O)c(S)cc2Cl)cc1
inactive: [1] > 100 µM | [2] 28.2 µM | [3] > 100 µM | [4] > 100 µM | [19] 27.3 µM | [5] > 100 µM | [6] > 100 µM | [7] 93.8 µM | [8] > 100 µM | [9] > 100 µM | [10] > 100 µM | [11] > 100 µM | [20] 41.3 µM | [13] > 100 µM | [14] > 100 µM | [15] > 100 µM | [16] > 100 µM | [17] > 100 µM | [18] > 100 µM

Nc1ncnc2c1ncn2C1OC(COC2C(CO)OC(OC(C(=O)O)C(O)C(OP(=O)(O)O)C(O)C(=O)O)C(O)C2O)C(O)C1O (stereo not drawn)
inactive: [1] > 100 µM | [2] > 100 µM | [3] > 100 µM | [4] > 100 µM | [5] 14.9 µM | [6] > 100 µM | [7] > 100 µM | [8] 15.7 µM | [9] > 100 µM | [10] > 100 µM | [11] > 100 µM | [12] > 100 µM | [13] > 100 µM | [14] 37.7 µM | [16] > 100 µM | [17] > 100 µM | [18] > 100 µM

OC(Cc1ccc2ccccc2n1)(C(F)(F)Cl)C(F)(F)Cl
inactive: [1] > 10 µM | [3] > 10 µM | [4] > 10 µM | [5] > 10 µM | [6] > 10 µM | [7] > 10 µM | [8] > 10 µM | [10] > 10 µM | [11] > 10 µM | [12] > 10 µM | [20] > 10 µM | [13] > 10 µM | [14] > 10 µM | [15] > 10 µM | [16] > 10 µM | [17] > 10 µM
